Assay results published in patent US20220305019A1, “PARAXANTHINE-BASED COMPOSITIONS FOR PROMOTING WEIGHT LOSS” (Ingenious Ingredients, LP, priority 2021, published 2022).

Assays:
Type in all cases: in vivo, human
[1] = Appetite visual analog scale (VAS) after oral ingestion, crossover, two participants; design: Appetite Visual Analog Scale / Appetite Visual Analog Scale MEAN: scale not given here; conditions: for Appetite Visual Analog Scale MEAN: mean 30-180 min
Protocol: All supplements were orally ingested with 8 fluid ounces of cold tap water. The order of administration for all interventions was randomized using a random allocation software to ensure randomization and to avoid order effects. […] All study visits took place between 0600-1000 hours. At least 72 hours of rest will take place between each condition.

[2] = Respiratory quotient (RQ=VCO2/VO2) after oral ingestion, crossover, two participants; conditions: 100 mg PX
Protocol: Upon determination of baseline respiratory quotient (RQ=VCO2/VO2) two participants were assigned in a randomized, double-blind, placebo-controlled, crossover fashion to ingest a non-energetic placebo (maltodextrin) or a 100 mg paraxanthine (PX). All supplements were orally ingested with 8 fluid ounces of cold tap water. The order of administration for all interventions was randomized using a random allocation software to ensure randomization and to avoid order effects. After ingestion, participants completed all assessments in an identical fashion 30, 60, 90, 120, and 180 minutes after ingestion of their assigned supplement. All study visits took place between 0600-1000 hours. At least 72 hours of rest took place between each condition.
The lower the RQ, the more fat that is being oxidized for body energy needs. The closer to 1.0 the more carbohydrate is being burned for energy needs. If numbers are lower, more fat is being oxidized. PX reduced the respiratory quotient by more than 10% compared to placebo, increasing fat oxidation (“fat burning”).

[3] = Swagger visual analog scale (VAS) after oral ingestion, crossover, two participants; design: Swagger (Visual Analog Scale) / Swagger VAS MEAN: scale not given here; conditions: 100 mg PX
Protocol: (§1) All supplements were orally ingested with 8 fluid ounces of cold tap water. The order of administration for all interventions was randomized using a random allocation software to ensure randomization and to avoid order effects. After ingestion, participants completed all assessments in an identical fashion 30, 60, 90, 120, and 180 minutes after ingestion of their assigned supplement. All study visits took place between 0600-1000 hours. At least 72 hours of rest took place between each condition.

[4] = Confidence visual analog scale (VAS) after oral ingestion, crossover, two participants; design: Confidence (Visual Analog Scale) / Confidence VAS MEAN: scale not given here; conditions: 100 mg PX
Protocol: as §1

[5] = Self-reported swagger after consuming paraxanthine (individual reports); conditions: person

## Cn1c(=O)[nH]c2ncn(C)c2c1=O [PX, paraxanthine]
[1]; 100 mg PX
  reduction of mean appetite compared to placebo: 38.5%
[1]; 100 mg PX and 300 mg PX vs 200 mg CA
  appetite reduction compared to CA: greater reduction in appetite compared to CA
[1]; 100 mg PX, 30 min, person one
  Appetite Visual Analog Scale: 29
[1]; 100 mg PX, 30 min, person two
  Appetite Visual Analog Scale: 70
[1]; 100 mg PX, 60 min, person one
  Appetite Visual Analog Scale: 27
[1]; 100 mg PX, 60 min, person two
  Appetite Visual Analog Scale: 65
[1]; 100 mg PX, 90 min, person one
  Appetite Visual Analog Scale: 25
[1]; 100 mg PX, 90 min, person two
  Appetite Visual Analog Scale: 60
[1]; 100 mg PX, 120 min, person one
  Appetite Visual Analog Scale: 29
[1]; 100 mg PX, 120 min, person two
  Appetite Visual Analog Scale: 85
[1]; 100 mg PX, 180 min, person one
  Appetite Visual Analog Scale: 35
[1]; 100 mg PX, 180 min, person two
  Appetite Visual Analog Scale: 90
[1]; 100 mg PX, Average of both
  Appetite Visual Analog Scale MEAN: 51.5
[1]; 100 mg PX, person one
  Appetite Visual Analog Scale MEAN: 29.0
  Appetite VAS mean Δ vs. PLA: −65.2
[1]; 100 mg PX, person two
  Appetite Visual Analog Scale MEAN: 74.0
  Appetite VAS mean Δ vs. PLA: +0.8
[1]; 300 mg PX
  reduction of mean appetite compared to placebo: 43.1%
[1]; 300 mg PX, 30 min, person one
  Appetite Visual Analog Scale: 24
[1]; 300 mg PX, 30 min, person two
  Appetite Visual Analog Scale: 65
[1]; 300 mg PX, 60 min, person one
  Appetite Visual Analog Scale: 30
[1]; 300 mg PX, 60 min, person two
  Appetite Visual Analog Scale: 60
[1]; 300 mg PX, 90 min, person one
  Appetite Visual Analog Scale: 29
[1]; 300 mg PX, 90 min, person two
  Appetite Visual Analog Scale: 55
[1]; 300 mg PX, 120 min, person one
  Appetite Visual Analog Scale: 27
[1]; 300 mg PX, 120 min, person two
  Appetite Visual Analog Scale: 60
[1]; 300 mg PX, 180 min, person one
  Appetite Visual Analog Scale: 26
[1]; 300 mg PX, 180 min, person two
  Appetite Visual Analog Scale: 80
[1]; 300 mg PX, Average of both
  Appetite Visual Analog Scale MEAN: 45.6
[1]; 300 mg PX, person one
  Appetite Visual Analog Scale MEAN: 27.2
  Appetite VAS mean Δ vs. 100 mg PX: −1.8
  Appetite VAS mean Δ vs. PLA: −67.0
[1]; 300 mg PX, person two
  Appetite Visual Analog Scale MEAN: 64.0
  Appetite VAS mean Δ vs. 100 mg PX: −10.0
  Appetite VAS mean Δ vs. PLA: −9.2
[2]
  reduction of respiratory quotient compared to placebo: more than 10%
[2]; 30 min, person one
  Respiratory Quotient: 0.68
[2]; 30 min, person two
  Respiratory Quotient: 0.81
[2]; 60 min, person one
  Respiratory Quotient: 0.66
[2]; 60 min, person two
  Respiratory Quotient: 0.74
[2]; 90 min, person one
  Respiratory Quotient: 0.72
[2]; 90 min, person two
  Respiratory Quotient: 0.74
[2]; 120 min, person one
  Respiratory Quotient: 0.70
[2]; 120 min, person two
  Respiratory Quotient: 0.69
[2]; 180 min, person one
  Respiratory Quotient: 0.77
[2]; 180 min, person two
  Respiratory Quotient: 0.70
[2]; Average of both
  Respiratory Quotient MEAN: 0.725
[2]; person one
  Respiratory Quotient MEAN: 0.71
  Respiratory Quotient MEAN Δ from 0: −0.014
[2]; person two
  Respiratory Quotient MEAN: 0.74
  Respiratory Quotient MEAN Δ from 0: −0.004
[2]; time 0 (baseline), person one
  Respiratory Quotient: 0.72
[2]; time 0 (baseline), person two
  Respiratory Quotient: 0.74
[3]
  increase of swagger over 200 mg caffeine ingestion: 26%
  increase of swagger over placebo: 21%
[3]; 30 min, person one
  Swagger (Visual Analog Scale): 91
[3]; 30 min, person two
  Swagger (Visual Analog Scale): 71
[3]; 60 min, person one
  Swagger (Visual Analog Scale): 80
[3]; 60 min, person two
  Swagger (Visual Analog Scale): 71
[3]; 90 min, person one
  Swagger (Visual Analog Scale): 89
[3]; 90 min, person two
  Swagger (Visual Analog Scale): 80
[3]; 120 min, person one
  Swagger (Visual Analog Scale): 81
[3]; 120 min, person two
  Swagger (Visual Analog Scale): 75
[3]; 180 min, person one
  Swagger (Visual Analog Scale): 90
[3]; 180 min, person two
  Swagger (Visual Analog Scale): 70
[3]; Average of both
  Swagger VAS MEAN: 79.8
[3]; person one
  Swagger VAS MEAN: 86.2
  Swagger VAS mean Δ vs. PLA: +7.6
[3]; person two
  Swagger VAS MEAN: 73.4
  Swagger VAS mean Δ vs. PLA: +20.0
[4]
  effect on confidence: failed to increase confidence
[4]; 30 min, person one
  Confidence (Visual Analog Scale): 70
[4]; 30 min, person two
  Confidence (Visual Analog Scale): 70
[4]; 60 min, person one
  Confidence (Visual Analog Scale): 80
[4]; 60 min, person two
  Confidence (Visual Analog Scale): 70
[4]; 90 min, person one
  Confidence (Visual Analog Scale): 89
[4]; 90 min, person two
  Confidence (Visual Analog Scale): 65
[4]; 120 min, person one
  Confidence (Visual Analog Scale): 81
[4]; 120 min, person two
  Confidence (Visual Analog Scale): 75
[4]; 180 min, person one
  Confidence (Visual Analog Scale): 90
[4]; 180 min, person two
  Confidence (Visual Analog Scale): 70
[4]; Average of both
  Confidence VAS MEAN: 76.0
[4]; person one
  Confidence VAS MEAN: 82.0
  Confidence VAS mean Δ vs. PLA: +0.6
[4]; person two
  Confidence VAS MEAN: 70.0
  Confidence VAS mean Δ vs. PLA: −1.0
[5]; 50 mg daily during two weeks
  self-reported swagger: increase in swagger
[5]; 100 mg, workplace and team sports
  self-reported swagger: significant increases in swagger
[5]; 200 mg
  self-reported swagger: an increase in swagger
[5]; 400 mg
  self-reported swagger: a significant boost in swagger
